{
  "source": "patent US10407381B2",
  "about": "(THE BOARD OF TRUSTEES OF THE UNIVERSITY OF ILLINOIS, priority 2015, dated 2019)",
  "key": {"[1]": {"target": "5-HT2B (Homo sapiens, UniProt P41595)", "sequence (P41595 whole entry)": "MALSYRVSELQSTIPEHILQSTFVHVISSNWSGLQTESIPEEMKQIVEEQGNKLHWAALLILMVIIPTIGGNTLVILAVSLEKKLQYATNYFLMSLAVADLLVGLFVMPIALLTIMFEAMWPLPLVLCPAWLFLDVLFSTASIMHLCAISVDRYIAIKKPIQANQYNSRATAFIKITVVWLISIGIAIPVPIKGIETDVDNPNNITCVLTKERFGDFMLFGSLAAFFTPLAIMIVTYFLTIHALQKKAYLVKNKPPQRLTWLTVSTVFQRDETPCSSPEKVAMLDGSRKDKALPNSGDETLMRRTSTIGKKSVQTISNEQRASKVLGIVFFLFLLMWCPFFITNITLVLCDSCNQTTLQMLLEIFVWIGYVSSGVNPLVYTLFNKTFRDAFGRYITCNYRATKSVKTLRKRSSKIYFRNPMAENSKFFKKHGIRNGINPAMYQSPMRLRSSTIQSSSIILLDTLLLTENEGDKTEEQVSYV", "experiment": "Calcium flux (FLIPR) assay, human 5-HT2B stably expressed in HEK-293 (Flp-In-293) cells", "conditions": "human 5-HT2B in HEK-293 cells; for EC50: EC50, nM 5-HT2B, NA = no activity at 10 μM; for Emax, % 5-HT 5-HT2B: normalized to 5-HT"}, "[2]": {"target": "T1, human 5-HT2C-INI (Homo sapiens, UniProt P28335)", "T1 sequence (P28335 33-458)": "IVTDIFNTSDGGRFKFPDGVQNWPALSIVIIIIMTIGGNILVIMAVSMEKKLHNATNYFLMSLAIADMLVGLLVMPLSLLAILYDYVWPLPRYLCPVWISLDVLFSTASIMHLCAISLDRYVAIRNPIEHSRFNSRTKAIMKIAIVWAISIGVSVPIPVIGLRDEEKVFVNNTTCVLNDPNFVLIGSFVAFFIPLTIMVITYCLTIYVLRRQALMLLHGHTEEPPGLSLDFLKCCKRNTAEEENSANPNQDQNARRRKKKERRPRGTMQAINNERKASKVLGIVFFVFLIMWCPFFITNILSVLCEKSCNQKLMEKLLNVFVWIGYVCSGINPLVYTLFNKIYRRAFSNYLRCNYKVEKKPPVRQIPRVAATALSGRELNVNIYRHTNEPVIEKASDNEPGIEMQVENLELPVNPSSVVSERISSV", "experiment": "Calcium flux (FLIPR) assay, human 5-HT2C-INI stably expressed in HEK-293 (Flp-In-293) cells", "conditions": "for EC50: EC50, nM 5-HT2C; for Emax, % 5-HT 5-HT2C: normalized to 5-HT"}, "[3]": {"target": "5-HT2A (Homo sapiens, UniProt P28223)", "sequence (P28223 whole entry)": "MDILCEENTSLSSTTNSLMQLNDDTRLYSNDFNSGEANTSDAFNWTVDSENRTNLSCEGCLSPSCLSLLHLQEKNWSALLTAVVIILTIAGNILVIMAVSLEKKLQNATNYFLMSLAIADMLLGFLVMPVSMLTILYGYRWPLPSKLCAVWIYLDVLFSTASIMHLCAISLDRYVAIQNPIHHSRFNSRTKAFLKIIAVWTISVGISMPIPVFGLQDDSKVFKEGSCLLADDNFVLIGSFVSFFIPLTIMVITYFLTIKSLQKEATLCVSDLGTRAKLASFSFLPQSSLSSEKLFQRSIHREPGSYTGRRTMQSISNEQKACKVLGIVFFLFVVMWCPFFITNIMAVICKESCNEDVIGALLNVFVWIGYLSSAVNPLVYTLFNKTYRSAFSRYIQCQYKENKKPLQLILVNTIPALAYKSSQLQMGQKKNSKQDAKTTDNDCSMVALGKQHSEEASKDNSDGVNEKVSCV", "experiment": "Calcium flux (FLIPR) assay, human 5-HT2A stably expressed in HEK-293 (Flp-In-293) cells", "conditions": "human 5-HT2A in HEK-293 cells, FLIPR; for EC50: EC50, nM 5-HT2A, NA = no activity at 10 μM; for Emax, % 5-HT 5-HT2A: normalized to 5-HT"}, "[4]": {"conditions": "human 5-HT2C-INI in HEK-293 cells, FLIPR, NA = no activity at 10 μM"}, "[5]": {"conditions": "human 5-HT2C-INI in HEK-293 cells, FLIPR"}},
  "data": [
    {"smiles": "C=CCOc1ccc(Cl)cc1C1CC1CN", "note": "(single isomer, unassigned; (-)) [(−)-Example 23, (−)-(2-(2-(Allyloxy)-5-chlorophenyl)cyclopropyl)methanamine]", "values": [
      {"measurement": "EC50", "setting": "[1]", "value": 4300, "unit": "nM"},
      {"measurement": "Emax, % 5-HT 5-HT2B", "setting": "[1]", "value": "(28%) % 5-HT"},
      {"measurement": "EC50", "setting": "[2]; [4]", "value": 737, "unit": "nM"},
      {"measurement": "Emax, % 5-HT 5-HT2C", "setting": "[2]; [5]", "value": "(42%) % 5-HT"}
    ]},
    {"smiles": "CCCOc1cc(F)c(F)cc1C1CC1CN", "note": "(single isomer, unassigned; (-)) [(−)-Example 43, (−)-(2-(4,5-Difluoro-2-propoxyphenyl)cyclopropyl)methanamine]", "values": [
      {"measurement": "EC50", "setting": "[1]", "value": 2970, "unit": "nM"},
      {"measurement": "Emax, % 5-HT 5-HT2B", "setting": "[1]", "value": "(13%) % 5-HT"},
      {"measurement": "EC50", "setting": "[2]", "value": 119, "unit": "nM"},
      {"measurement": "Emax, % 5-HT 5-HT2C", "setting": "[2]; [5]", "value": "(89%) % 5-HT"}
    ]},
    {"smiles": "CCOc1cc(F)c(Cl)cc1C1CC1CN", "note": "(single isomer, unassigned; (-)) [(−)-Example 2, (−)-(2-(5-Chloro-2-ethoxy-4-fluorophenyl)cyclopropyl)methanamine]", "values": [
      {"measurement": "EC50", "setting": "[3]", "value": 1240, "unit": "nM"},
      {"measurement": "Emax, % 5-HT 5-HT2A", "setting": "[3]", "value": "(18%) % 5-HT"},
      {"measurement": "EC50", "setting": "[2]; [4]", "value": 118, "unit": "nM"},
      {"measurement": "Emax, % 5-HT 5-HT2C", "setting": "[2]; [5]", "value": "(92%) % 5-HT"}
    ]},
    {"smiles": "C=CCOc1cc(Cl)c(Cl)cc1C1CC1CN", "note": "(single isomer, unassigned; (-)) [(−)-Example 35, (−)-(2-(2-(Allyloxy)-4,5-dichlorophenyl)cyclopropyl)methanamine]", "values": [
      {"measurement": "Emax, % 5-HT 5-HT2B", "setting": "[1]", "value": "(14%) % 5-HT"},
      {"measurement": "EC50", "setting": "[2]; [4]", "value": 278, "unit": "nM"},
      {"measurement": "Emax, % 5-HT 5-HT2C", "setting": "[2]; [5]", "value": "(84%) % 5-HT"}
    ]},
    {"smiles": "C=CCOc1ccc(F)cc1C1CC1CN", "note": "(single isomer, unassigned; (-)) [(−)-Example 8, (−)-(2-(2-(Allyloxy)-5-fluorophenyl)cyclopropyl)methanamine]", "values": [
      {"measurement": "EC50", "setting": "[3]", "value": 697, "unit": "nM"},
      {"measurement": "Emax, % 5-HT 5-HT2A", "setting": "[3]", "value": "(56%) % 5-HT"},
      {"measurement": "EC50", "setting": "[2]; [4]", "value": 157, "unit": "nM"},
      {"measurement": "Emax, % 5-HT 5-HT2C", "setting": "[2]; [5]", "value": "(87%) % 5-HT"}
    ]},
    {"smiles": "CCOc1ccc(Cl)cc1C1CC1CN", "note": "(single isomer, unassigned; (-)) [(−)-Example 11, (−)-(2-(5-Chloro-2-ethoxyphenyl)cyclopropyl)methanamine]", "values": [
      {"measurement": "EC50", "setting": "[1]", "value": 2310, "unit": "nM"},
      {"measurement": "Emax, % 5-HT 5-HT2B", "setting": "[1]", "value": "(26%) % 5-HT"},
      {"measurement": "EC50", "setting": "[2]; [4]", "value": 646, "unit": "nM"},
      {"measurement": "Emax, % 5-HT 5-HT2C", "setting": "[2]; [5]", "value": "(72%) % 5-HT"}
    ]},
    {"smiles": "C=CCOc1ccc(F)c(Cl)c1C1CC1CN", "note": "(single isomer, unassigned; (-)) [(−)-Example 53, (−)-(2-(6-(Allyloxy)-2-chloro-3-fluorophenyl)cyclopropyl)methanamine]", "values": [
      {"measurement": "Emax, % 5-HT 5-HT2B", "setting": "[1]", "value": "(57%) % 5-HT"},
      {"measurement": "EC50", "setting": "[2]; [4]", "value": 101, "unit": "nM"},
      {"measurement": "Emax, % 5-HT 5-HT2C", "setting": "[2]; [5]", "value": "(89%) % 5-HT"}
    ]},
    {"smiles": "C=CCOc1ccc(F)c(F)c1C1CC1CN", "note": "(single isomer, unassigned; (-)) [(−)-Example 49, (−)-(2-(6-(Allyloxy)-2,3-difluorophenyl)cyclopropyl)methanamine]", "values": [
      {"measurement": "EC50", "setting": "[1]", "value": 4460, "unit": "nM"},
      {"measurement": "Emax, % 5-HT 5-HT2B", "setting": "[1]", "value": "(26%) % 5-HT"},
      {"measurement": "EC50", "setting": "[2]; [4]", "value": 151, "unit": "nM"},
      {"measurement": "Emax, % 5-HT 5-HT2C", "setting": "[2]; [5]", "value": "(89%) % 5-HT"}
    ]},
    {"smiles": "NCC1CC1c1c(OCCF)ccc(Cl)c1F", "note": "(single isomer, unassigned; (+)) [(+)-Example 31, (+)-(2-(3-Chloro-2-fluoro-6-(2-fluoroethoxy)phenyl)cyclopropyl)methanamine]", "values": [
      {"measurement": "Emax, % 5-HT 5-HT2B", "setting": "[1]", "value": "(15%) % 5-HT"},
      {"measurement": "EC50", "setting": "[2]; [4]", "value": 71, "unit": "nM"},
      {"measurement": "Emax, % 5-HT 5-HT2C", "setting": "[2]; [5]", "value": "(86%) % 5-HT"}
    ]},
    {"smiles": "NCC1CC1c1cc(F)ccc1OCCF", "note": "(single isomer, unassigned; (-)) [(−)-Example 10, (−)-(2-(5-Fluoro-2-(2-fluoroethoxy)phenyl)cyclopropyl)methanamine]", "values": [
      {"measurement": "EC50", "setting": "[3]", "value": 2990, "unit": "nM"},
      {"measurement": "Emax, % 5-HT 5-HT2A", "setting": "[3]", "value": "(20%) % 5-HT"},
      {"measurement": "EC50", "setting": "[2]; [4]", "value": 514, "unit": "nM"},
      {"measurement": "Emax, % 5-HT 5-HT2C", "setting": "[2]; [5]", "value": "(77%) % 5-HT"}
    ]},
    {"smiles": "CCCOc1ccc(Cl)cc1C1CC1CN", "note": "(single isomer, unassigned; (+)) [(+)-Example 12, (+)-(2-(5-Chloro-2-propoxyphenyl)cyclopropyl)methanamine]", "values": [
      {"measurement": "EC50", "setting": "[1]", "value": 3440, "unit": "nM"},
      {"measurement": "Emax, % 5-HT 5-HT2B", "setting": "[1]", "value": "(25%) % 5-HT"},
      {"measurement": "EC50", "setting": "[2]; [4]", "value": 103, "unit": "nM"},
      {"measurement": "Emax, % 5-HT 5-HT2C", "setting": "[2]; [5]", "value": "(72%) % 5-HT"}
    ]},
    {"smiles": "NCC1CC1c1cc(Cl)ccc1OCCF", "note": "(single isomer, unassigned; (-)) [(−)-Example 19, (−)-(2-(5-Chloro-2-(2-fluoroethoxy)phenyl)cyclopropyl)methanamine]", "values": [
      {"measurement": "EC50", "setting": "[1]", "value": 4520, "unit": "nM"},
      {"measurement": "Emax, % 5-HT 5-HT2B", "setting": "[1]", "value": "(31%) % 5-HT"},
      {"measurement": "EC50", "setting": "[2]; [4]", "value": 1130, "unit": "nM"},
      {"measurement": "Emax, % 5-HT 5-HT2C", "setting": "[2]; [5]", "value": "(59%) % 5-HT"}
    ]}
  ]
}
